In patent US20220281825A1 (priority 2016, published 2022):

Legend:
LASV-p = experiment: organism not typed; format: cell-based, Lassa (LASV); settings: Vero, 24 h, read-out: LASV-p EC50 (nM)
MACV-p = experiment: organism not typed; format: cell-based, Machupo (MACV); settings: Vero, 24 h, read-out: MACV-p EC50 (nM)
JUNV-p = experiment: organism not typed; format: cell-based, Junin (JUNV); settings: Vero, 24 h, read-out: JUNV-p EC50 (nM)
TCRV-p = experiment: organism not typed; format: cell-based; settings: Vero, 24 h, read-out: TCRV-p EC50 (nM)
in vitro = settings: African green monkey

SMILES	EC50 (LASV-p) [nM]	EC50 (MACV-p) [nM]	EC50 (JUNV-p) [nM]	EC50 (TCRV-p) [nM]	CC50 (in vitro) [µM]
COc1ccc(-n2cnc3ccc(-c4cccc(C(C)C)c4)cc32)cc1 [Example A1, 1-(4-Methoxyphenyl)-6-[3-(propan-2-yl)phenyl]-1H-1,3-benzodiazole]	31.7	> 100	> 100	> 100	12.9
COc1ccc(-n2cnc3ccc(-c4ccc(C(C)C)cc4)cc32)cc1 [Example A2, 1-(4-methoxyphenyl)-6-[4-(propan-2-yl)phenyl]-1H-1,3-benzodiazole]	6.6	> 100	> 100	> 100	25.6
COc1ccc(-c2ccc3ncn(-c4ccc(OC)cc4)c3c2)cc1 [Example A3, 1,6-bis(4-methoxyphenyl)-1H-1,3-benzodiazole]	7.6	> 25	> 25	> 25	< 0.3
COc1ccc(-n2cnc3ccc(-c4ccc(C#N)cc4)cc32)cc1 [Example A4, 4-[1-(4-methoxyphenyl)-1H-1,3-benzodiazol-6-yl]benzonitrile]	> 25	> 25	> 25	> 25	< 0.3
COc1ccc(-n2cnc3ccc(-c4ccccc4OC)cc32)cc1 [Example A5, 6-(2-methoxyphenyl)-1-(4-methoxyphenyl)-1H-1,3-benzodiazole]	> 25	> 25	> 25	> 25	< 0.3
COc1ccc(-n2cnc3ccc(-c4cccc(OC)c4)cc32)cc1 [Example A6, 6-(3-methoxyphenyl)-1-(4-methoxyphenyl)-1H-1,3-benzodiazole]	> 25	> 25	> 25	> 25	9.72
COc1ccc(-n2cnc3ccc(Cc4ccc(C)cc4)cc32)cc1 [Example A9, 1-(4-methoxyphenyl)-6-[(4-methylphenyl)methyl]-1H-1,3-benzodiazole]	> 100				
COc1ccc(-n2cnc3ccc(-c4ccc(S(C)(=O)=O)cc4)cc32)cc1 [Example A11, 6-(4-methanesulfonylphenyl)-1-(4-methoxyphenyl)-1H-1,3-benzodiazole]	> 25	> 25	> 25	> 25	
COc1ccc(-n2cnc3c(-c4ccc(C(C)C)cc4)cccc32)cc1 [Example A19, 1-(4-methoxyphenyl)-4-[4-(propan-2-yl)phenyl]-1H-1,3-benzodiazole]	> 100				
COc1ccc(-n2cnc3c(-c4cccc(C(C)C)c4)cccc32)cc1 [Example A20, 1-(4-methoxyphenyl)-4-[3-(propan-2-yl)phenyl]-1H-1,3-benzodiazole]	> 100				
COc1ccccc1-n1cnc2ccc(-c3ccc(C(C)(C)O)cc3)cc21 [Example A22, 2-{4-[1-(2-methoxyphenyl)-1H-1,3-benzodiazol-6-yl]phenyl}propan-2-ol]	> 25	> 25	> 25	> 25	
COc1cccc(-n2cnc3ccc(-c4ccc(C(C)(C)O)cc4)cc32)c1 [Example A23, 2-{4-[1-(3-methoxyphenyl)-1H-1,3-benzodiazol-6-yl]phenyl}propan-2-ol]	> 25	> 25	> 25	> 25	
CC(=O)c1ccc(-c2ccc3ncn(-c4ccc5[nH]ccc5c4)c3c2)cc1 [Example A28, 1-{4-[1-(1H-indol-5-yl)-1H-1,3-benzodiazol-6-yl]phenyl}ethan-1-one]	11	> 25	7.29	> 25	
c1cc2cc(-c3ccc4ncn(-c5ccc6[nH]ccc6c5)c4c3)ccc2[nH]1 [Example A29, 1,6-bis(1H-indol-5-yl)-1H-1,3-benzodiazole]	0.53	11.1	6.96	15.2	
CC(C)Oc1ccc(-n2cnc3cnc(-c4ccc(C(C)(C)O)cc4)cc32)cc1 [Example B5, 2-(4-{1-[4-(propan-2-yloxy)phenyl]-1H-imidazo[4,5-c]pyridin-6-yl}phenyl)propan-2-ol]	> 25	> 25	13.4	> 25	
CC(=O)c1ccc(-c2cc3c(cn2)ncn3-c2ccc(OC(C)C)cc2)cc1 [Example B8, 1-(4-{1-[4-(propan-2-yloxy)phenyl]-1H-imidazo[4,5-c]pyridin-6-yl}phenyl)ethan-1-one]	> 25	> 25	> 25	> 25	
CC(C)Oc1ccc(-c2cnc3ccc(-c4ccc(N)nc4)cn23)cc1 [Example C14, 5-{3-[4-(propan-2-yloxy)phenyl]imidazo[1,2-a]pyridin-6-yl}pyridin-2-amine]	> 25	> 25	> 25	> 25	

SMILES	EC50 (LASV-p) [nM]	EC50 (MACV-p) [nM]	EC50 (JUNV-p) [nM]	EC50 (TCRV-p) [nM]	CC50 (in vitro) [µM]
CC(C)Oc1ccc(-c2cnc3ccc(-c4ccc(C(N)=O)cc4)cn23)cc1 [Example C16, 4-{3-[4-(propan-2-yloxy)phenyl]imidazo[1,2-a]pyridin-6-yl}benzamide]	> 25	> 25	> 25	> 25	
CC(C)Oc1ccc(-c2cnc3ccc(-c4ccc(OC(C)C)cc4F)cn23)cc1 [Example C23, 6-[2-fluoro-4-(propan-2-yloxy)phenyl]-3-[4-(propan-2-yloxy)phenyl]imidazo[1,2-a]pyridine]	> 25	> 25	> 25	> 25	
CC(C)Oc1ccc(-c2cnc3ccc(-c4ccc(OCCN5CCOCC5)cc4)cn23)cc1 [Example C25, 4-[2-(4-{3-[4-(propan-2-yloxy)phenyl]imidazo[1,2-a]pyridin-6-yl}phenoxy)ethyl]morpholine]	> 25	> 25	≥ 25	> 25	
CC(C)Oc1ccc(-c2cnc3ccc(-c4ccc(C5(O)CNC5)cc4)cn23)cc1 [Example C29, 3-(4-{3-[4-(propan-2-yloxy)phenyl]imidazo[1,2-a]pyridin-6-yl}phenyl)azetidin-3-ol]	> 25	> 25	> 25	> 25	
CC(C)Oc1ccc(-c2ccc3ncc(-c4ccc5c(c4)CCO5)n3c2)cc1 [Example C34, 3-(2,3-dihydro-1-benzofuran-5-yl)-6-[4-(propan-2-yloxy)phenyl]imidazo[1,2-a]pyridine]	4.73	25.1	3.68	16.5	
CC(C)Oc1ccc(-c2ccc3ncc(-c4ccc(C(F)F)cc4)n3c2)cc1 [Example C36, 3-[4-(difluoromethyl)phenyl]-6-[4-(propan-2-yloxy)phenyl]imidazo[1,2-a]pyridine]	8.18	> 25	23.2	> 25	
CC(C)Oc1ccc(-c2ccc3ncc(-c4ccc(OCCN5CCOCC5)cc4)n3c2)cc1 [Example C43, 4-[2-(4-{6-[4-(propan-2-yloxy)phenyl]imidazo[1,2-a]pyridin-3-yl}phenoxy)ethyl]morpholine]	> 25	> 25	> 25	> 25	
CC(C)Oc1ccc(-c2ccc3ncc(-c4ccc(C(=O)O)cc4)n3c2)cc1 [Example C45, 4-{6-[4-(propan-2-yloxy)phenyl]imidazo[1,2-a]pyridin-3-yl}benzoic acid]	> 25	> 25	> 25	> 25	
CC(C)Oc1ccc(-c2ccc3cnn(-c4ccc(OC(C)C)cc4)c3c2)cc1 [Example D1, 1,6-bis[4-(propan-2-yloxy)phenyl]-1H-indazole]	> 25	> 25	14	> 25	
CC(C)Oc1ccc(-c2ccc3ccn(-c4ccc(OC(C)C)cc4)c3c2)cc1 [Example D4, 1,6-bis[4-(propan-2-yloxy)phenyl]-1H-indole]	> 25	16.9	8.1	> 25	
CC(C)Oc1ccc(-c2ccc3occ(-c4ccc(OC(C)C)cc4)c3c2)cc1 [Example D8, 3,5-bis[4-(propan-2-yloxy)phenyl]-1-benzofuran]	> 25	> 25	> 25	> 25	
CC(C)Oc1ccc(-c2coc3ccc(-c4ccc5[nH]ccc5c4)cc23)cc1 [Example D9, 5-{3-[4-(propan-2-yloxy)phenyl]-1-benzofuran-5-yl}-1H-indole]	> 25	> 25	> 25	> 25	
CC(=O)c1ccc(-c2cnc3cnc(-c4ccc(OC(C)C)cc4)cn23)cc1 [Example D14, 1-(4-{6-[4-(propan-2-yloxy)phenyl]imidazo[1,2-a]pyrazin-3-yl}phenyl)ethan-1-one]	6.77	25	13.5	20.2	
CC(C)Oc1ccc(-c2ccc3cnc(-c4ccc(OC(C)C)cc4)n3c2)cc1 [Example D17, 3,6-bis[4-(propan-2-yloxy)phenyl]imidazo[1,5-a]pyridine]	> 25	> 25	> 25	> 25	
CCOC(=O)c1nc2ccc(-c3ccc(OC(C)C)cc3)cn2c1-c1ccc(OC(C)C)cc1 [Example D20, ethyl 3,6-bis[4-(propan-2-yloxy)phenyl]imidazo[1,2-a]pyridine-2-carboxylate]	> 25	> 25	> 25	> 25	
CC(C)Oc1ccc(-c2ccc3nc(C(=O)O)c(-c4ccc(OC(C)C)cc4)n3c2)cc1 [Example D21, 3,6-bis[4-(propan-2-yloxy)phenyl]imidazo[1,2-a]pyridine-2-carboxylic acid]	> 25	> 25	> 25	> 25	
